Values quoted from earlier work, collected in patent publication US20050272804A1, “Methods of delaying Alzheimer's disease progression using a beta-amyloid precursor protein inhibitor and a HMG CoA reductase inhibitor” (priority 2004, published 2005).

What was measured:
[1] = rats, i.v. dosing
AChE = molecular target: T1, AChE (Rattus norvegicus, UniProt P37136); settings: rats, after phenserine administration
T1 construct: from tissue
T1 sequence (P37136 32-614): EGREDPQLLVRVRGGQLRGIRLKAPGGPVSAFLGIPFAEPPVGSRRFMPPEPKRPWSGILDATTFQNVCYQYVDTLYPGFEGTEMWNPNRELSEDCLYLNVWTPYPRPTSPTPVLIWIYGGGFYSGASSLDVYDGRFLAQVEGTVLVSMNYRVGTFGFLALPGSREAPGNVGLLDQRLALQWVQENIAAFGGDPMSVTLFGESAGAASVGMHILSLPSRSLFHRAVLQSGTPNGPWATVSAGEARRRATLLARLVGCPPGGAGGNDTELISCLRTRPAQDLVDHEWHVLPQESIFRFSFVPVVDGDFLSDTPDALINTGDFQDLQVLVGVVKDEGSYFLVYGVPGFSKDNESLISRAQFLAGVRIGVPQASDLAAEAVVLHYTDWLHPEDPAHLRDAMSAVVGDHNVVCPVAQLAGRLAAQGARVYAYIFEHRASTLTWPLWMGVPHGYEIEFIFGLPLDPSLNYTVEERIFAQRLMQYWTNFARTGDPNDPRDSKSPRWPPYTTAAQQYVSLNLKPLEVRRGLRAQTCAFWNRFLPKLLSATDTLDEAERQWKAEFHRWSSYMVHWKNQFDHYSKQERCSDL

NOS = settings: Tg mice, 2.5 mg/kg, i.p., brain extracts
Aβ = settings: Tg mice, 2.5 mg/kg, i.p.
[2] = system: brain extracellular acetylcholine (ACh); settings: striatal microdialysis, conscious freely-moving rats
neuronal NOS (nNOS) = settings: Tg mice, 2.5 mg/kg, i.p., brain extracts

## CN1CC[C@@]2(C)c3cc(OC(=O)Nc4ccccc4)ccc3N(C)C12 (single isomer, unassigned) [phenserine]
[1]
  brain drug levels relative to plasma: 10 fold
[1]; brain and plasma
  time to peak drug level: ≤ 5 min
AChE
  half-life of AChE inhibition: > 8.25 h
  inhibition of AChE: > 70%
NOS
  NOS activity, treated vs control Tg groups: no significant difference
Aβ
  lowering of brain Aβ levels: approximately 50%
[2]
  rise in brain ACh levels: greater than 3 fold
Neuronal NOS (nNOS)
  levels of nNOS protein: increased

## CN1CC[C@]2(C)c3cc(OC(=O)Nc4ccccc4)ccc3N(C)C12 (single isomer, unassigned; (+)) [(+)-Penserine]
cholinesterase
  anticholinesterase activity: minimal
